US8143249B2 (Gilead Sciences, Inc., priority 2005, dated 2012)

Assay: Oral pharmacokinetics/bioavailability of prodrugs vs parent (compound 1) in rats, plasma LC/MS/MS
Format: in vivo, Sprague Dawley rats
Settings: for Cmax: Sprague Dawley
Experimental: The following studies were conducted in order to compare the pharmacokinetics of the parent A2B adenosine receptor antagonist and its corresponding prodrug. The parent compound chosen was the compound of formula A in which R^1 is n-propyl, R^2 is ethyl, R^3 is hydrogen, and R^4 is 3-trifluoromethylphenyl; that is:
The studies were carried out in Sprague Dawley rats. The test compounds were administered orally by gavage to groups of three rats using a single oral dose of the test compound at 2 and 30 mg/kg. All oral doses were prepared either as a suspension in DMSO/ethanol/PEG300/0.1% N-methyl-D-glucamine or as a suspension in 0.5% methylcellulose in water. Blood samples were obtained serially from each rat at 0, 5, 15, 30 min, and then 1, 1.5, 2, 4, 6, 8, and 24 hrs post-dose.
Concentrations of compound 1 and/or the corresponding prodrug in rat plasma were determined by a HPLC tandem mass spectrometric (LC/MS/MS) method. Briefly, 0.1 mL of plasma sample was treated with 0.5 mL of acetonitrile:methanol (9:1, v/v) mixture containing 25 ng of compound 1 having deuterated ethyl at the 3-position in place of ethyl. (Internal Standard, I.S.) to precipitate the protein. The mixture was filtered through a 96-well filter and filtrate was collected and evaporated to dryness on a 96-well plate evaporator. The residue was then reconstituted with 400 μL 20% methanol and subjected to LC/MS/MS analysis. Quantification of compound 1 was achieved by mass spectrometry using Multiple Reaction Monitoring (MRM) mode, monitoring the transitions at m/z 447.1>159.1 for compound 1 and 452.1>159.1 for I.S. The quantification limit of the assay was 0.38 ng/mL for the analysis of the oral dose samples and 10 ng/mL during the analysis of the intravenous dose samples using 0.1 mL of plasma.
Non-compartmental pharmacokinetic parameters were determined using a commercial program WinNonLin Professional, Version 4.1 (Pharsight, Mountain View, Calif.). Plasma concentration at below level of detection was assumed to be zero for the calculation of means and pharmacokinetic parameters.
For oral administration, the maximum concentration (Cmax) and time to reach Cmax (Tmax), AUC(0-1), AUC(0-8) and bioavailability (% F) were determined. Oral bioavailability was determined from the ratio of dose-adjusted AUC(0-8) of the respective oral dose and the mean AUC(0-8) values of the 0.1 and 0.5 mg/kg intravenous doses.
The results are presented below in tabular form. The table provides results obtained by using a suspension of the test compound in a suspension in DMSO/ethanol/PEG300/0.1% N-methyl-D-glucamine in rats.

[1] = unchanged prodrug in rat plasma after single oral gavage dose, suspension in DMSO/ethanol/PEG300/0.1% N-methyl-D-glucamine

| Compound | Cmax [1] [ng/mL] | Prodrug Mean Dose Adjusted AUC [1] | plasma levels of parent compound 1 following oral dosing, compared with oral dosing of the parent itself (rats, oral, result in words) | Prodrug Mean Cmax [1] [ng/mL] | prodrug seen in plasma unmetabolized (rats, oral, result in words) |
| --- | --- | --- | --- | --- | --- |
| CCCn1c(=O)c2c(nc(-c3cnn(Cc4cccc(C(F)(F)F)c4)c3)n2COC(=O)C(C)(C)C)n(CC)c1=O [Compound 4, [3-ethyl-2,6-dioxo-1-propyl-8-(1-{[3-(trifluoromethyl)phenyl]methyl}pyrazol-4-yl)-1,3,7-trihydropurin-7-yl]methyl-2,2-dimethylpropanoate] | < 5 | Not detectable |  |  |  |
| CCCn1c(=O)c2c(nc(-c3cnn(Cc4cccc(C(F)(F)F)c4)c3)n2COC(=O)N(C)CCN(C)C)n(CC)c1=O [Compound 5] |  | Not detectable | approximately the same | <5 |  |
| CCCn1c(=O)c2c(nc(-c3cnn(Cc4cccc(C(F)(F)F)c4)c3)n2COP(=O)(O)O)n(CC)c1=O [Compound 6, [3-ethyl-2,6-dioxo-1-propyl-8-(1-{[3-(trifluoromethyl)phenyl]methyl}-pyrazol-4-yl)(1,3,7-trihydropurin-7-yl)]methyl dihydrogen phosphate] | < 5 | Not detectable |  |  | detected in the plasma unmetabolized |
| CCCn1c(=O)c2c(nc(-c3cnn(Cc4cccc(C(F)(F)F)c4)c3)n2COC(=O)NCCN(C)C)n(CC)c1=O [Compound 10] | < 5 | Not detectable |  |  | detected in the plasma unmetabolized |

Further lines, with some results ahead:

| Cmax [1] [ng/mL] | Prodrug Mean Dose Adjusted AUC [1] | plasma levels of parent compound 1 following oral dosing, compared with oral dosing of the parent itself (rats, oral, result in words) | Prodrug Mean Cmax [1] [ng/mL] | Compound | prodrug seen in plasma unmetabolized (rats, oral, result in words) |
| --- | --- | --- | --- | --- | --- |
| < 5 | Not detectable |  |  | CCCC(=O)OCn1c(-c2cnn(Cc3cccc(C(F)(F)F)c3)c2)nc2c1c(=O)n(CCC)c(=O)n2CC [Compound 2, [3-ethyl-2,6-dioxo-1-propyl-8-(1-{[3-(trifluoromethyl)phenyl]methyl}pyrazol-4-yl)-1,3,7-trihydropurin-7-yl]methyl butanoate] |  |
| < 5 | Not detectable |  |  | CCCn1c(=O)c2c(nc(-c3cnn(Cc4cccc(C(F)(F)F)c4)c3)n2COC(C)=O)n(CC)c1=O [Compound 3, [3-ethyl-2,6-dioxo-1-propyl-8-(1-{[3-(trifluoromethyl)phenyl]methyl}pyrazol-4-yl)-1,3,7-trihydropurin-7-yl]methyl acetate] |  |
